We go through seven compounds from article PMC6797481, “Identification of an allosteric binding site on the human glycine transporter, GlyT2, for bioactive lipid analgesics” (eLife, 2019).

Numbering of substitutions follows the chain as printed.

One test has as its target T1, GlyT2 F428A mutant (Homo sapiens, UniProt Q9Y345, F428A).
T1 construct: expressed in transfected cells; host or cells: Xenopus laevis oocytes (cRNA injection)
T1 sequence (Q9Y345 1-797 F428A): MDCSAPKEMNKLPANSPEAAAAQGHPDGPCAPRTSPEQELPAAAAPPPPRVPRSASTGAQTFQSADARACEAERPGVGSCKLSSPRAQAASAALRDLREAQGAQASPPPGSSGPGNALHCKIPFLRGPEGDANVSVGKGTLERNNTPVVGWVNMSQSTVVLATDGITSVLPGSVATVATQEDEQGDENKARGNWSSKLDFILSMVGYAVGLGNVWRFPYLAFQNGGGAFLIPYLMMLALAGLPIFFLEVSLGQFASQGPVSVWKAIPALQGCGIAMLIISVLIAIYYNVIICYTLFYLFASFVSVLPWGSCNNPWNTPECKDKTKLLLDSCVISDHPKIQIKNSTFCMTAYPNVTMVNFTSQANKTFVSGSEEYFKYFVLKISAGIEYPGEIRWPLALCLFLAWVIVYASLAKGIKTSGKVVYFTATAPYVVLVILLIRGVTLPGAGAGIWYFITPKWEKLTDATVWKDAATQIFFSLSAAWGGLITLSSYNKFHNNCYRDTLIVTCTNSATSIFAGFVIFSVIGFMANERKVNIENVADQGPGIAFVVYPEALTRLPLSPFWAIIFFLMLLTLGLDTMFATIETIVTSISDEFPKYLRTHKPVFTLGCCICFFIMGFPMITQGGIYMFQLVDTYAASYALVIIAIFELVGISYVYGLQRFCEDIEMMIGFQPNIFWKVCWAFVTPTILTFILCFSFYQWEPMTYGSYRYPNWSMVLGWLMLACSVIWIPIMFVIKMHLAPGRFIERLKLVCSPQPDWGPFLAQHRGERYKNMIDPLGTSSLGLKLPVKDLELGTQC
Kind of test: Glycine transport currents, two electrode voltage clamp, oocytes expressing GlyT2 F428A. The class given is cell-based. Conditions: GlyT2 F428A; for % Max. inhibition: mean ± SEM. As to the method: (§1) Glycine was first applied to establish maximal transport current.
(§2) Compounds were tested for inhibition of glycine transport on Xenopus laevis oocytes expressing mutant GlyT1 and GlyT2 transporters. n values are in brackets, with measurements taken from at least 2 batches of oocytes.

A further test has as its system GlyT1 WT. Set-up: method as in earlier work. The settings on record: previously published; cited from earlier work.
The target in the next test is T2, GlyT2 WT (Homo sapiens, UniProt Q9Y345).
T2 sequence (Q9Y345 1-797): T1 sequence (Q9Y345 1-797 F428A) with A428F
Further details: expressed in transfected cells; host or cells: Xenopus laevis oocytes (cRNA injection). Conditions: WT GlyT2, previously published, cited from earlier work; for IC50: mean (95% CI); for GlyT2 % max. inhibition: mean ± SEM.

The target in the next test is T3, GlyT2 Y550L mutant (Homo sapiens, UniProt Q9Y345, Y550L).
T3 construct: expressed in transfected cells; host or cells: Xenopus laevis oocytes (cRNA injection)
T3 sequence (Q9Y345 1-797 Y550L): T1 sequence (Q9Y345 1-797 F428A) with A428F, Y550L
Kind of test: Glycine transport currents, two electrode voltage clamp, oocytes expressing GlyT2 Y550L. It counts as cell-based. The settings on record: GlyT2 Y550L; for IC50: greater than maximum concentration applied (footnote a); for % Max. inhibition: mean ± SEM. Here is the method: as §1, §2

Another test concerns the target T4, GlyT2 P561S mutant (Homo sapiens, UniProt Q9Y345, P561S).
T4 construct: expressed in transfected cells; host or cells: Xenopus laevis oocytes (cRNA injection)
T4 sequence (Q9Y345 1-797 P561S): T1 sequence (Q9Y345 1-797 F428A) with A428F, P561S
Kind of test: Glycine transport currents, two electrode voltage clamp, oocytes expressing GlyT2 P561S. It counts as cell-based. The settings on record: GlyT2 P561S. Here is the method: as §1, §2

Another test concerns the target T5, GlyT2 W563L mutant (Homo sapiens, UniProt Q9Y345, W563L).
T5 construct: expressed in transfected cells; host or cells: Xenopus laevis oocytes (cRNA injection)
T5 sequence (Q9Y345 1-797 W563L): T1 sequence (Q9Y345 1-797 F428A) with A428F, W563L
Kind of test: Glycine transport currents, two electrode voltage clamp, oocytes expressing GlyT2 W563L. The class given is cell-based. The settings on record: GlyT2 W563L. Here is the method:
as §1, §2

For `CCCCC=CCCCCCCCC(=O)NCC(=O)O` [C14 ω5 Glycine], the IC50 is more than 30000 nM against GlyT2 F428A mutant, more than 10000 nM in the test with GlyT1 WT and 9200 nM on GlyT2 WT. The “% Max. inhibition (% inhibition at the highest concentration of inhibitor used)” value on GlyT2 F428A mutant (footnote b) is 33.4 ± 3.0^b (p=0.0007) %. Moreover, the “GlyT2 % max. inhibition” value at GlyT2 WT is 100 ± 7.2%.
With `CCCCCCCCCCC=CCCCC(=O)NCC(=O)O` [C16 ω11 Glycine], the IC50 against GlyT2 F428A mutant (mean (95% CI)) was 4810 nM; in the test on GlyT1 WT, more than 10000 nM; at GlyT2 WT, 3400 nM. At GlyT2 F428A mutant, the “% Max. inhibition” value was 103 ± 7.7 (p=0.6075) %. For the same compound, at GlyT2 WT, the “GlyT2 % max. inhibition” value is given as 97.9 ± 2.3%.
Regarding `CCCCCCCC=CCCCCCCCCC(=O)NCC(=O)O` [C18 ω8 Glycine], at GlyT2 F428A mutant, the concentration for half-maximal inhibition (IC50) was more than 10000 nM and the “% Max. inhibition” value is listed as 13.2 ± 2.7 (p=0.0001) %. Moreover, the IC50 with GlyT1 WT was more than 10000 nM. On GlyT2 WT, the IC50 is 320 nM and the “GlyT2 % max. inhibition” value is given as 61.3 ± 1.7%.
Regarding `CCCCCCCCCC=CCCCCCCC(=O)NCC(=O)O` [C18 ω10 Glycine], the IC50 at GlyT2 F428A mutant (mean (95% CI)) was 776 nM; in the test with GlyT1 WT, more than 10000 nM; on GlyT2 WT, 340 nM. Moreover, the “% Max. inhibition” value on GlyT2 F428A mutant is recorded as 25.3 ± 5.3 (p=0.0092) %. Also, the “GlyT2 % max. inhibition” value at GlyT2 WT is on record as 52.4 ± 2.2%.
As to `CCCCCCCC/C=C\CCCCCCCC(=O)N[C@@H](CCCNC(=N)N)C(=O)O` [oleoyl l-Arginine], at GlyT2 Y550L mutant, the IC50 was more than 3000 nM and the “% Max. inhibition” value is given as 9.3 ± 1.4 (p=0.0001) %. The IC50 in the test with GlyT1 WT is more than 3000 nM. On GlyT2 WT, the IC50 is 47.9 nM and the “GlyT2 % max. inhibition” value is 87.2 ± 3.7%.
Regarding `CCCCCCCC/C=C\CCCCCCCC(=O)N[C@@H](CC(C)C)C(=O)O` [oleoyl l-Leucine], the “% Max. inhibition” value at GlyT2 Y550L mutant is recorded as 41.1 ± 6.2 (p=0.0115) %. Also, the IC50 with GlyT1 WT is more than 10000 nM. For the same compound, the “GlyT2 % max. inhibition” value at GlyT2 WT is on record as 72.2 ± 3.8%.
Regarding `CCCCCCCC/C=C\CCCCCCCC(=O)N[C@@H](CO)C(=O)O` [oleoyl l-Serine], the IC50 was more than 3000 nM against GlyT2 Y550L mutant, 580 nM at GlyT2 P561S mutant (mean (95% CI)), 661 nM against GlyT2 W563L mutant (mean (95% CI)) and more than 3000 nM with GlyT1 WT. Moreover, the “% Max. inhibition” value on GlyT2 Y550L mutant is recorded as 11.2 ± 1.6 (p=0.0001) %; on GlyT2 P561S mutant (mean ± SEM), 80.3 ± 7.3 (p=0.7241) %; on GlyT2 W563L mutant (mean ± SEM), 62.3 ± 5.3 (p=0.3662) %. For the same compound, the “GlyT2 % max. inhibition” value on GlyT2 WT is 73.1 ± 5.1%.
